{"source": "patent US20130005747A1", "about": "“METHOD FOR SELECTING A CANCER THERAPY” (Cyclacel Limited, priority 2010, published 2013)", "assay_in_all_cases": "Fractional growth, 72 h seliciclib", "assay_type_in_all_cases": "cell-based, human", "key": {"[1]": {"tested_on": "769-P", "conditions": "769-P (Kidney), 15 μM seliciclib", "source_text": "(§1) A total of 270 human cancer cell lines from diverse cancer histopathologic types were investigated."}, "[2]": {"tested_on": "8505C", "conditions": "8505C (Thyroid), 15 μM seliciclib", "source_text": "as §1"}, "[3]": {"tested_on": "A2058", "conditions": "A2058 (Skin), 15 μM seliciclib", "source_text": "as §1"}, "[4]": {"tested_on": "A673", "conditions": "A673 (Muscle), 15 μM seliciclib", "source_text": "as §1"}, "[5]": {"tested_on": "AGS", "conditions": "AGS (Stomach), 15 μM seliciclib", "source_text": "as §1"}, "[6]": {"tested_on": "AN3CA", "conditions": "AN3CA (Uterus), 15 μM seliciclib", "source_text": "as §1"}, "[7]": {"tested_on": "AU565", "conditions": "AU565 (Breast), 15 μM seliciclib", "source_text": "as §1"}, "[8]": {"tested_on": "BFTC-905", "conditions": "BFTC-905 (Bladder), 15 μM seliciclib", "source_text": "as §1"}, "[9]": {"tested_on": "COLO 320DM", "conditions": "COLO 320DM (Intestine), 15 μM seliciclib", "source_text": "as §1"}, "[10]": {"tested_on": "HCC-366", "conditions": "HCC-366 (Lung: NSCLC), 15 μM seliciclib", "source_text": "as §1"}, "[11]": {"tested_on": "HOS", "conditions": "HOS (Bone), 15 μM seliciclib", "source_text": "as §1"}, "[12]": {"tested_on": "HeLa", "conditions": "HeLa (Cervix), 15 μM seliciclib", "source_text": "as §1"}, "[13]": {"tested_on": "Hs 766T", "conditions": "Hs 766T (Pancreas), 15 μM seliciclib", "source_text": "as §1"}, "[14]": {"tested_on": "HuCCT1", "conditions": "HuCCT1 (Liver), 15 μM seliciclib", "source_text": "as §1"}, "[15]": {"tested_on": "KMRC-1", "conditions": "KMRC-1 (Kidney), 15 μM seliciclib", "source_text": "as §1"}, "[16]": {"tested_on": "KP-4", "conditions": "KP-4 (Pancreas), 15 μM seliciclib", "source_text": "as §1"}, "[17]": {"tested_on": "LCLC-103H", "conditions": "LCLC-103H (Lung: NSCLC), 15 μM seliciclib", "source_text": "as §1"}, "[18]": {"tested_on": "LNZTA3WT4", "conditions": "LNZTA3WT4 (Brain), 15 μM seliciclib", "source_text": "as §1"}, "[19]": {"tested_on": "MCF7", "conditions": "MCF7 (Breast), 15 μM seliciclib", "source_text": "as §1"}, "[20]": {"tested_on": "MDA-MB-231", "conditions": "MDA-MB-231 (Breast), 15 μM seliciclib", "source_text": "as §1"}, "[21]": {"tested_on": "NCI-H1568", "conditions": "NCI-H1568 (Lung: NSCLC), 15 μM seliciclib", "source_text": "as §1"}, "[22]": {"tested_on": "NCI-H2030", "conditions": "NCI-H2030 (Lung: NSCLC), 15 μM seliciclib", "source_text": "as §1"}, "[23]": {"tested_on": "NCI-H2085", "conditions": "NCI-H2085 (Lung: NSCLC), 15 μM seliciclib", "source_text": "as §1"}, "[24]": {"tested_on": "NCI-H2170", "conditions": "NCI-H2170 (Lung: NSCLC), 15 μM seliciclib", "source_text": "as §1"}, "[25]": {"tested_on": "NCI-H2172", "conditions": "NCI-H2172 (Lung: NSCLC), 15 μM seliciclib", "source_text": "as §1"}, "[26]": {"tested_on": "OVCAR-5", "conditions": "OVCAR-5 (Ovary), 15 μM seliciclib", "source_text": "as §1"}, "[27]": {"tested_on": "PCI-15A", "conditions": "PCI-15A (Head & Neck), 15 μM seliciclib", "source_text": "as §1"}, "[28]": {"tested_on": "PCI-4B", "conditions": "PCI-4B (Head & Neck), 15 μM seliciclib", "source_text": "as §1"}, "[29]": {"tested_on": "PL4", "conditions": "PL4 (Pancreas), 15 μM seliciclib", "source_text": "as §1"}, "[30]": {"tested_on": "RVH-421", "conditions": "RVH-421 (Skin), 15 μM seliciclib", "source_text": "as §1"}, "[31]": {"tested_on": "SAS", "conditions": "SAS (Head & Neck), 15 μM seliciclib", "source_text": "as §1"}, "[32]": {"tested_on": "SW 900", "conditions": "SW 900 (Lung: NSCLC), 15 μM seliciclib", "source_text": "as §1"}, "[33]": {"tested_on": "T.T", "conditions": "T.T (Esophagus), 15 μM seliciclib", "source_text": "as §1"}, "[34]": {"tested_on": "T24", "conditions": "T24 (Bladder), 15 μM seliciclib", "source_text": "as §1"}, "[35]": {"tested_on": "T84", "conditions": "T84 (Intestine), 15 μM seliciclib", "source_text": "as §1"}, "[36]": {"tested_on": "T98G", "conditions": "T98G (Brain), 15 μM seliciclib", "source_text": "as §1"}, "[37]": {"tested_on": "YAPC", "conditions": "YAPC (Pancreas), 15 μM seliciclib", "source_text": "as §1"}}, "data": [{"smiles": "CC[C@H](CO)Nc1nc(NCc2ccccc2)c2ncn(C(C)C)c2n1", "note": "[seliciclib, roscovitine]", "values": [{"measurement": "Fractional Growth", "setting": "[1]", "value": 0.602}, {"measurement": "Fractional Growth", "setting": "[2]", "value": 0.4214}, {"measurement": "Fractional Growth", "setting": "[3]", "value": 0.6341}, {"measurement": "Fractional Growth", "setting": "[4]", "value": 0.4111}, {"measurement": "Fractional Growth", "setting": "[5]", "value": 0.2157}, {"measurement": "Fractional Growth", "setting": "[6]", "value": 0.2094}, {"measurement": "Fractional Growth", "setting": "[7]", "value": 0.4762}, {"measurement": "Fractional Growth", "setting": "[8]", "value": 0.4198}, {"measurement": "Fractional Growth", "setting": "[9]", "value": 0.3188}, {"measurement": "Fractional Growth", "setting": "[10]", "value": 0.2561}, {"measurement": "Fractional Growth", "setting": "[11]", "value": 0.617}, {"measurement": "Fractional Growth", "setting": "[12]", "value": 0.9192}, {"measurement": "Fractional Growth", "setting": "[13]", "value": 0.4284}, {"measurement": "Fractional Growth", "setting": "[14]", "value": 0.4559}, {"measurement": "Fractional Growth", "setting": "[15]", "value": 0.554}, {"measurement": "Fractional Growth", "setting": "[16]", "value": 0.5607}, {"measurement": "Fractional Growth", "setting": "[17]", "value": 0.5051}, {"measurement": "Fractional Growth", "setting": "[18]", "value": 0.6936}, {"measurement": "Fractional Growth", "setting": "[19]", "value": 0.4137}, {"measurement": "Fractional Growth", "setting": "[20]", "value": 0.4643}, {"measurement": "Fractional Growth", "setting": "[21]", "value": 0.3317}, {"measurement": "Fractional Growth", "setting": "[22]", "value": 0.3063}, {"measurement": "Fractional Growth", "setting": "[23]", "value": 0.4597}, {"measurement": "Fractional Growth", "setting": "[24]", "value": 0.4534}, {"measurement": "Fractional Growth", "setting": "[25]", "value": 0.6197}, {"measurement": "Fractional Growth", "setting": "[26]", "value": 0.4053}, {"measurement": "Fractional Growth", "setting": "[27]", "value": 0.4965}, {"measurement": "Fractional Growth", "setting": "[28]", "value": 0.4686}, {"measurement": "Fractional Growth", "setting": "[29]", "value": 0.057}, {"measurement": "Fractional Growth", "setting": "[30]", "value": 0.4165}, {"measurement": "Fractional Growth", "setting": "[31]", "value": 0.3207}, {"measurement": "Fractional Growth", "setting": "[32]", "value": 0.5842}, {"measurement": "Fractional Growth", "setting": "[33]", "value": 0.1271}, {"measurement": "Fractional Growth", "setting": "[34]", "value": 0.5262}, {"measurement": "Fractional Growth", "setting": "[35]", "value": 0.5371}, {"measurement": "Fractional Growth", "setting": "[36]", "value": 0.4404}, {"measurement": "Fractional Growth", "setting": "[37]", "value": 0.588}]}]}
